Experimental data from patent publication US20070053834A1, “Radioligands for the TRP-M8 receptor and methods therewith” (priority 2003, published 2007).

Target: T1, TRP-M8 receptor (Homo sapiens, UniProt Q7Z2W7)
Assay: Cold sensation threshold on tongue (filter paper test)
Format: in vivo
Parameters: The endogenous TRP-M8 receptor is a physiological receptor designed to detect temperature changes; from tissue; host or cells: tongue (sensory nerve endings), in vivo
Settings: filter paper 1 × 1 cm impregnated with compound, on tongue, 30 sec; presence or absence of cooling
Excerpt: In Vivo Assays for TRP-M8 Activation. The endogenous TRP-M8 receptor is a physiological receptor designed to detect temperature changes in its environment and to transmit this signal to the central nervous system so that appropriate regulatory responses can be initiated (e.g. vasoconstriction to reduce heat loss, putting on warmer clothing, avoiding the cold environment).
The TRP-M8 receptor on cold sensory nerve endings and on malignant cells, for example in the prostate, are biochemically identical proteins. Thus, the potency of a molecule to elicit cold sensations, for example on the tongue or skin, was used as surrogate index of the binding affinity of the molecule for the TRP-M8 receptor. A number of potent “N-radiohaloaryl-carboxamides” were synthesized and tested for use as precursors of the inventive compounds and the results are shown in Table 1.

T1 sequence (Q7Z2W7 whole entry): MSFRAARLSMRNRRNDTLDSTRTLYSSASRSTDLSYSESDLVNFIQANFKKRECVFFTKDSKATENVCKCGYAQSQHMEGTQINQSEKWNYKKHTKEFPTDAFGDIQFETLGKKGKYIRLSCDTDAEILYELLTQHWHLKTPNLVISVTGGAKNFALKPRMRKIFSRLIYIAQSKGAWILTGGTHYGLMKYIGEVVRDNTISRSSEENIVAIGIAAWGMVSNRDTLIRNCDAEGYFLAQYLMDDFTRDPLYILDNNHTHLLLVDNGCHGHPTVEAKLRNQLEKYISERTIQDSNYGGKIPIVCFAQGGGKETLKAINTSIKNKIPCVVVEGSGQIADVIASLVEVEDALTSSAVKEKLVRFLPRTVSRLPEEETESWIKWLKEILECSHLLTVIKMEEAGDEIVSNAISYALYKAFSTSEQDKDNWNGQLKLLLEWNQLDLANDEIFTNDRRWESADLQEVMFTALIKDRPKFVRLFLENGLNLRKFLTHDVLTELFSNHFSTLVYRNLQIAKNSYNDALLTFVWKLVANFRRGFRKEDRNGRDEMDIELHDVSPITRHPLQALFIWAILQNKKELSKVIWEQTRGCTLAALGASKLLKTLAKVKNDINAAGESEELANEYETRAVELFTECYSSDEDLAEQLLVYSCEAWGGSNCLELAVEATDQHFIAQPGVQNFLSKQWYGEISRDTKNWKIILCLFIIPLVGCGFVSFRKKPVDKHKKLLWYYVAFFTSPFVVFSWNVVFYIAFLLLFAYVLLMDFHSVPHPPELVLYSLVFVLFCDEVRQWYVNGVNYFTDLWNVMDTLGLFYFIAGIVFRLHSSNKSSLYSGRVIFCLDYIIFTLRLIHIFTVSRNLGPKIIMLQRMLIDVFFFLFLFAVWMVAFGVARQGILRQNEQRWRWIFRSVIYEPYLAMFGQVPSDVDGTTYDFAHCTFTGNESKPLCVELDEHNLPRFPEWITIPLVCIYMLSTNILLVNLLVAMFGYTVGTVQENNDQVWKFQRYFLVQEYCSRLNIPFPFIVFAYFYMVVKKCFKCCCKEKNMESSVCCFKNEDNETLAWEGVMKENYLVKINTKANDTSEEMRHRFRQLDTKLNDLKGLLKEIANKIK

SMILES | Cold Sensation Threshold on Tongue [µg]
COc1ccc(NC(=O)C2(C(C)C)CCCCCC2)c(C)c1 [N-(4′-methoxy-2′-methylphenyl)-1-isopropylcycloheptanecarboxamide] | 0.2
CC1CCC(C(C)C)C(C(=O)Nc2ccccc2O)C1 (stereo not drawn) [N-(2′-hydroxyphenyl)-2-isopropyl-5-methylcyclohexanecarboxamide] | 0.5
CC1CCC(C(C)C)C(C(=O)Nc2ccc(F)cc2)C1 (stereo not drawn) [N-(4′-fluorophenyl)-2-isopropyl-5-methylcyclohexanecarboxamide] | 0.5
CC1CCC(C(C)C)C(C(=O)Nc2ccc([N+](=O)[O-])cc2)C1 (stereo not drawn) [N-(4′-nitrophenyl)-2-isopropyl-5-methylcyclohexanecarboxamide] | 0.3
Cc1ccc(NC(=O)C2(C(C)C)CCCCCC2)c(C)c1 [N-(2′,4′-dimethylphenyl)-1-isopropylcycloheptanecarboxamide] | 15
CC1CCC(C(C)C)C(C(=O)Nc2ccc(Cl)cc2)C1 (stereo not drawn) [N-(4′-chlorophenyl)-2-isopropyl-5-methylcyclohexanecarboxamide] | 8
Cc1ccc(NC(=O)C2CC(C)CCC2C(C)C)cc1O (stereo not drawn) [N-(3′-hydroxy-4′-methylphenyl)-2-isopropyl-5-methylcyclohexanecarboxamide] | 0.1
CCOC(=O)c1ccc(NC(=O)C2CC(C)CCC2C(C)C)cc1 (stereo not drawn) [N-(4′-ethoxycarbonylphenyl)-2-isopropyl-5-methylcyclohexanecarboxamide] | 5
COc1ccc(NC(=O)C(C)(C(C)C)C(C)C)cc1 [N-(4′-methoxyphenyl)-2-isopropyl-2,3-dimethylbutyramide] | 0.5
CC(=O)c1ccc(NC(=O)C2CC(C)CCC2C(C)C)cc1 (stereo not drawn) [N-(4′-acetylphenyl)-2-isopropyl-5-methylcyclohexanecarboxamide] | 2
CC1CCC(C(C)C)C(C(=O)Nc2ccc(O)cc2)C1 (stereo not drawn) [N-(4′-hydroxyphenyl)-2-isopropyl-5-methylcyclohexanecarboxamide] | 1
COc1ccc(NC(=O)C2CC(C)CCC2C(C)C)cc1 (stereo not drawn) [N-(4′-methoxyphenyl)-2-isopropyl-5-methylcyclohexanecarboxamide] | 0.1
CCC1(C(=O)Nc2ccc(OC)cc2)CCCCCC1C (stereo not drawn) [N-(4′-methoxyphenyl)-1-ethyl-2-methylcycloheptanecarboxamide] | 6
Cc1ccc(NC(=O)C2CC(C)CCC2C(C)C)c(C)c1 (stereo not drawn) [N-(2′,4′-dimethylphenyl)-2-isopropyl-5-methylcyclohexanecarboxamide] | 0.1
Cc1ccc(NC(=O)C(C)(C(C)C)C(C)C)cc1C [N-(3′,4′-dimethylphenyl)-2-isopropyl-2,3-dimethylbutyramide] | 3
Cc1ccc(NC(=O)C2(C(C)C)CCCCCC2)cc1C [N-(3′,4′-dimethylphenyl)-1-isopropylcycloheptanecarboxamide] | 15
COc1ccc(NC(=O)C2(C(C)C)CCCCCC2)cc1OC [N-(3′,4′-dimethoxyphenyl)-1-isopropylcycloheptanecarboxamide] | 5
COc1ccc(NC(=O)C(C)(CC(C)C)C(C)C)cc1 (stereo not drawn) [N-(4′-methoxyphenyl)-2-isopropyl-2,4-dimethylpentanamide] | 2
Cc1ccc(NC(=O)C(C)(C(C)C)C(C)C)c(C)c1 [N-(2′,4′-dimethylphenyl)-2-isopropyl-2,3-dimethylbutyramide] | 1
CC1CCC(C(C)C)C(C(=O)NCc2ccccc2)C1 (stereo not drawn) [N-phenylmethyl-2-isopropyl-5-methylcyclohexanecarboxamide] | 20
CC1CCC(C(C)C)C(C(=O)Nc2ccccc2)C1 (stereo not drawn) [N-phenyl-2-isopropyl-5-methylcyclohexanecarboxamide] | 20
Cc1ccc(NC(=O)C2(C(C)C)CCCCCC2)cc1O [N-(3′-hydroxy-4′-methylphenyl)-1-isopropylcycloheptanecarboxamide] | 1

Same assay, conditions: oral

SMILES | oral cooling threshold [µg]
CNC(=O)C1CC(C)CCC1C(C)C (stereo not drawn) [N-methyl p-menthane-3-carboxamide, reference compound] | 1.1
CCNC(=O)C1CC(C)CCC1C(C)C (stereo not drawn) [N-ethyl p-menthane-3-carboxamide, reference compound] | 0.2

Target: T1, TRP-M8 receptor
Assay: FLIPR calcium influx assay in HEK cells transfected with human TRP-M8
Format: cell-based
Parameters: expressed in transfected cells; host or cells: HEK (human embryonic kidney) cells, permanently transfected
Settings: HEK cells with human TRP-M8, Fura-2, 29 or 37° C.
Excerpt: (§1) Cooling Actions on Skin. […] In Vitro Assays for TRP-M8 Activation. […] Brit. J Pharmacol. 2004 Feb; 141(4):737-45], and by A. K. Vogt-Eisele, D. Bura, H. Hatt, and E. T. Wei. [N-Alkylcarboxamide Cooling Agents: Activities on Skin and Cells with TRPM8 and TRPA1 Receptors. Acta Dermato-Venereol. 85: 468, 2005.] The data here were collected for the applicant by Dr. Afrodite Lourbakos of Unilever Research and Development, the Netherlands, using similar transfection methods and a FLIPR assay system. For the patch-clamp studies, using measurements of intracellular voltage changes, some of the data reported here were collected by Dr. Matthias Bödding of the University of the Saarland, and by Dr. Angela Vogt-Eisele of the Ruhr University at Bochum, Germany. FLIPR assay Human embryonic kidney (HEK) cells were permanently trausfected with plasmids containging the cDNA coding for the gene for the human TRP-M8 receptor. These cells were then incubated with a calcium fluorescence indicator (Fura-2) and incubated at either 29 or 37° C. These cells were then distributed into a 96-well fluorescence-plate image reader with automated drug dilution and computerized software for dose-response analysis. Cacium ion influx into cells after stimulation with compounds was quantified in fluorescence units. Compounds were dissolved in DMSO by ultrasonication to a 0.1 M solution. 5 μl of this stock was added to 5 mg of cyclodextrin and 5 ml of 140 Na-Tyrode, to achieve various final test concentrations.

SMILES | EC50 [nM]
COc1ccc(NC(=O)C2CC(C)CCC2C(C)C)cc1F (stereo not drawn) [CPS-113, N-(3′-fluoro, 4′-methoxyphenyl)-2-isopropyl-5-methyl-cyclohexanecarboxamide] | 1300
O=C1NC(c2cccc([N+](=O)[O-])c2)=CCN1c1ccccc1O [icilin, reference compound] | 800
CC1CCC(C(C)C)C(C(=O)Nc2ccc(OC(F)(F)F)cc2)C1 (stereo not drawn) [CPS-127] | > 100000
COc1cccc(NC(=O)C2CC(C)CCC2C(C)C)c1 (stereo not drawn) [CPS-141] | 6000
COc1ccc(NC(=O)C2CC(C)CCC2C(C)C)cc1 (stereo not drawn) [CPS-112 (WS-12), N-(4′-methoxyphenyl)-2-isopropyl-5-methylcyclohexanecarboxamide] | 600
CCOc1ccc(NC(=O)C2CC(C)CCC2C(C)C)cc1 (stereo not drawn) [CPS-128] | 500
CC1CCC(C(C)C)C(C(=O)Nc2ccc(I)cc2)C1 (stereo not drawn) [CPS-120] | 10000
CC1CCC(C(C)C)C(C(=O)Nc2ccc(F)cc2)C1 (stereo not drawn) [CPS-124, N-(4′-fluorophenyl)-2-isopropyl-5-methylcyclohexanecarboxamide] | 1300
CC1CCC(C(C)C)C(C(=O)Nc2ccc([N+](=O)[O-])c(C(F)(F)F)c2)C1 (stereo not drawn) [CPS-138] | > 100000
CC1CCC(C(C)C)C(C(=O)Nc2ccc(Br)cc2)C1 (stereo not drawn) [CPS-123] | 6000
CC1CCC(C(C)C)C(C(=O)Nc2ccc(S(=O)(=O)Nc3ncccn3)cc2)C1 (stereo not drawn) [CPS-125, 2-Isopropyl-5-methyl-cyclohexanecarboxylic acid [4-(pyrimidin-2-ylsulfamoyl)-phenyl]-amide] | 6000

Target: T1, TRP-M8 receptor
Assay: Patch-clamp whole-cell recordings in TRP-M8 transfected HEK cells
Format: cell-based
Parameters: expressed in transfected cells; host or cells: HEK (human embryonic kidney) cells, permanently transfected
Settings: whole-cell configuration, room temperature (20-23° C.)
Excerpt: as §1
Patch-Clamp Electrophysiological Recordings. HEK cells were prepared as above. Membrane currents were recorded in the whole-cell configuration using an EPC-9 amplifier (HEKA Elektronik, Lambrecht, Germany) as described previously (Bödding et al. 2002). […] Extracellular solution contained (in mM): 145 NaCl, 2 CaCl2, 2.8 KCl, 2 MgCl2, 11 glucose, 10 HEPES, adjusted to pH 7.2 with NaOH. Drugs were applied in the bath solution by a custom-made local perfusion system. The series resistance was compensated for 80 % and ranged between 5 and 10 MΩ. Currents were filtered using an 8-pole Bessel filter at 2.9 kHz and digitised at 100 μs. Voltage ramps (−110 mV to 90 mV in 50 ms) were applied at 0.5 Hz from a holding potential of −10 mV using PULSE software (HEKA Electronics). Several parameters such as capacitance, series resistance and holding current were monitored simultaneously at a slower rate (2 Hz) using the X-Chart display (HEKA Electronics). A liquid junction potential of 10 mV was applied to all voltages. All experiments were carried out at room temperature (20-23° C.). Internal solutions were kept on ice to minimize hydrolysis of ATP.

SMILES | EC50 [nM]
COc1ccc(NC(=O)C2CC(C)CCC2C(C)C)cc1F (stereo not drawn) [CPS-113, N-(3′-fluoro, 4′-methoxyphenyl)-2-isopropyl-5-methyl-cyclohexanecarboxamide] | 1200
O=C1NC(c2cccc([N+](=O)[O-])c2)=CCN1c1ccccc1O [icilin, reference compound] | 1400
COc1ccc(NC(=O)C2CC(C)CCC2C(C)C)cc1 (stereo not drawn) [CPS-112 (WS-12), N-(4′-methoxyphenyl)-2-isopropyl-5-methylcyclohexanecarboxamide] | 200
COc1ccc(NC(=O)C2CC(C)CCC2C(C)C)c(I)c1 (stereo not drawn) [CPS-129, N-(2′-iodo-4′methoxyphenyl)-2-isopropyl-5-methylcyclohexanecarboxamide] | 300
CC1CCC(C(C)C)C(C(=O)Nc2ccc(F)cc2)C1 (stereo not drawn) [CPS-124, N-(4′-fluorophenyl)-2-isopropyl-5-methylcyclohexanecarboxamide] | 1200
CC1CCC(C(C)C)C(C(=O)N(C)C[C@H](O)c2cccc(O)c2)C1 (stereo partly drawn) [CPS-195, 2-Isopropyl-5-methyl-cyclohexanecaboxylic acid [2-hydroxy-2-(3-hydroxy-phenyl)-ethyl]-methyl-amide] | 100
CC1CCC(C(C)C)C(C(=O)Nc2ccc(S(=O)(=O)Nc3ncccn3)cc2)C1 (stereo not drawn) [CPS-125, 2-Isopropyl-5-methyl-cyclohexanecarboxylic acid [4-(pyrimidin-2-ylsulfamoyl)-phenyl]-amide] | 3000
